Assay results reported in US4075341A, “2-Substituted phenyl-5-triazols [5,1-a] isoquinoline compounds” (Gruppo Lepetit S.p.A., priority 1975, dated 1978).
Read-outs that look alike come from different tables or passages of the source.

Tests used:
[1] = system: female Syrian golden hamsters; test: anti-fertility activity in pregnant female Syrian golden hamsters; assay type: in vivo; parameters: key to anti-fertility activity (active according to criteria): active: a reduction of live fetuses in at least 60% of the treated animals and the presence of implantation sites proves the animal to have been pregnant; conditions: for anti-fertility activity (active according to criteria): 10 mg./kg. s.c. daily for 5 days, days 4-8 of pregnancy, autopsy day 14; for ED50: Mesocricetus auratus, sc, read-out: ED50 (dose showing 100% effectiveness in 50% of the treated animals)
Protocol: Representative experiments for assessing anti-fertility activity are carried out with female Syrian golden hamsters weighing 100 to 130 g. The animals are mated and the presence of sperm in the vagina is taken as evidence of mating. The day sperm is detected is considered day one of pregnancy, since in our laboratories and those of other investigators 90 to 100% of animals that mate as evidenced by vaginal sperm are pregnant. Pregnancy is later confirmed at the time of autopsy by presence of fetuses or implantation sites in the uterus. Even if an animal aborts the fetus, implantation scars still remain as evidence that the animal had been pregnant. Test compounds dissolved or suspended in sesame oil are administered subcutaneously in doses of 10 mg./kg. daily for 5 days beginning on day 4 of pregnancy (days 4-8). The animals are autopsied on day 14 of pregnancy and the uteri are examined for evidence of pregnancy (implantation sites, fetal resorptions or live fetuses), hemorrage, and evidence of abnormalities of the uterus, placenta or fetuses. A compound is considered to be active if there is a reduction of live fetuses in at least 60% of the treated animals and the presence of implantation sites proves the animal to have been pregnant. […] The compounds are then studied for dose-activity relationship and toxicity or other biological activities. Compounds that show 100% effectiveness (absence of live fetuses in 100% of animals) with minimal side effects or toxicity are studied in depth.
The ED50 values identify the dose levels which show 100% effectiveness (defined as above) in 50% of the treated animals.

[2] = system: female beagle dogs; test: anti-fertility activity in pregnant female beagle dogs; assay type: in vivo; conditions: Canis lupus familiaris, sc; single subcutaneous dose on 20th day of pregnancy, opened on 35th day; read-out: Minimal effective doses (100% effectiveness, absence of live fetuses in 100% of the animals)
Description: In performing experiments with dogs, female beagle dogs weighing approximately 10 kg. are mated and on the 20th day of pregnancy the animals are given single subcutaneous doses of the compounds that were active in both the rat and the hamster. On the 35th day of pregnancy, the animals are surgically opened and the uteri are examined for presence of fetuses, placental tissue etc. Following Table III reports the minimal doses of representative compounds showing a 100% effectiveness (absence of live fetuses in 100% of the animals).

[3] = system: conditioned rats; test: secondary conditioned avoidance response test (anti-anxiety effect); assay type: in vivo
Protocol: The CNS depressant properties were investigated according to the Irwin method, and in particular, the anti-anxiety effect was evaluated on the basis of the secondary conditioned avoidance response test. A specific anti-anxiety effect was evidenced by administering to conditioned rats doses of 15-60 mg./kg. i.p. of representative compounds of the invention.
The following table indicates the ratio of the rats which were deconditioned after administration of a predetermined amount of a representative compound: […]

[4] = acute toxicity LD50 in mice; conditions: mouse, in vivo, ip; i.p. in mice
[5] = Table I, 5,6-dihydro compounds, hamsters
[6] = Table II, 5,6-unsaturated compounds, similar experiments

| SMILES | anti-fertility activity (active according to criteria) [1] | ED50 [1, 5] | also measured |
| --- | --- | --- | --- |
| c1ccc(COc2cccc(-c3nc4n(n3)CCc3ccccc3-4)c2)cc1 [Example 15, 2-(m-benzyloxyphenyl)-5,6-dihydro-s-triazolo[5,1-a]isoquinoline] | active |  |  |
| c1ccc(-c2nc3n(n2)CCc2ccccc2-3)cc1 [Example 5, 2-phenyl-5,6-dihydro-s-triazolo[5,1-a]isoquinoline, reference compound] |  | 1 mg/kg |  |
| Fc1ccc(-c2nc3n(n2)CCc2ccccc2-3)cc1 [Example 28, 2-(p-fluorophenyl)-5,6-dihydro-s-triazolo[5,1-a]isoquinoline] | active | 0.1 mg/kg |  |
| Cc1cccc(-c2nc3n(n2)CCc2ccccc2-3)c1 [Example 3, 2-(m-toluyl)-5,6-dihydro-s-triazolo[5,1-a]isoquinoline, reference compound] |  | > 10 mg/kg |  |
| COc1cccc(-c2nc3n(n2)CCc2ccccc2-3)c1 [Example 1, 2-(m-Methoxyphenyl)-5,6-dihydro-s-triazolo[5,1-a]isoquinoline] | active | 0.1 mg/kg | minimal effective dose [2]: 12.5 mg/kg |
| Nc1nc2n(n1)CCc1ccccc1-2 [Example 32] |  |  | Deconditioned/treated ([3]; dose 30 mg./kg. i.p.): 6/10; LD50 [4]: > 600 mg/kg |
| Clc1cccc(-c2nc3n(n2)CCc2ccccc2-3)c1 [Example 7, 2-(m-chlorophenyl)-5,6-dihydro-s-triazolo[5,1-a]isoquinoline] | active | 0.75 mg/kg |  |
| c1ccc2c(c1)CCn1nc(-c3ccc4c(c3)OCO4)nc1-2 [Example 16, 2-(3,4-methylenedioxyphenyl)-5,6-dihydro-s-triazolo[5,1-a]isoquinoline] | active |  |  |
| Cc1nc2n(n1)CCc1ccccc1-2 [Example 9, 2-methyl-5,6-dihydro-s-triazolo[5,1-a]isoquinoline, reference compound] |  | > 10 mg/kg |  |
| CCOc1cccc(-c2nc3n(n2)CCc2ccccc2-3)c1 [Example 13, 2-(m-ethoxyphenyl)-5,6-dihydro-s-triazolo[5,1-a]isoquinoline] | active | 0.03 mg/kg | minimal effective dose [2]: 6.25 mg/kg |
| CN(C)c1ccc(-c2nc3n(n2)CCc2ccccc2-3)cc1 [Example 27, 2-(p-dimethylaaminophenyl)-5,6-dihydro-s-triazolo[5,1-a]isoquinoline] | active |  |  |
| CCCCOc1cccc(-c2nc3n(n2)CCc2ccccc2-3)c1 [Example 31, 2-(m-butoxyphenyl)-5,6-dihydro-s-triazolo[5,1-a]isoquinoline] | active |  |  |
| N=C(NN1CCc2ccccc2C1=O)c1ccccc1 [2-Benzimidoylamino-3,4-dihydro-1 (2H)-isoquinolinone] |  |  | Deconditioned/treated ([3]; dose 60 mg./kg. i.p.): 10/10; LD50 [4]: > 600 mg/kg |
| COc1cc(OC)cc(-c2nc3n(n2)CCc2ccccc2-3)c1 [Example 12, 2-(3,5-dimethoxyphenyl)-5,6-dihydro-s-triazolo[5,1-a]isoquinoline] | active |  |  |
| C=CCOc1cccc(-c2nc3n(n2)CCc2ccccc2-3)c1 [Example 24, 2-(m-allyloxyphenyl)-5,6-dihydro-s-triazolo[5,1-a]isoquinoline] | active | 0.18 mg/kg | minimal effective dose [2]: 6.25 mg/kg |
| Clc1ccc(-c2nc3n(n2)CCc2ccccc2-3)cc1 [Example 8, 2-(p-chlorophenyl)-5,6-dihydro-s-triazolo[5,1-a]isoquinoline] | active | 0.065 mg/kg |  |
| c1ccc(-c2nc3c4ccccc4ccn3n2)cc1 [Example 59, 2-Phenyl-s-triazolo[5,1-a]isoquinoline, reference compound] |  |  | ED50 [1, 6]: 0.25 mg/kg |

| SMILES | anti-fertility activity (active according to criteria) [1] | ED50 [1, 5] | also measured |
| --- | --- | --- | --- |
| CC(=O)N(C(C)=O)c1nc2n(n1)CCc1ccccc1-2 [Example 34, 2-Diacetylamino-5,6-dihydro-s-triazolo[5,1-a]isoquinoline] |  |  | Deconditioned/treated ([3]; dose 60 mg./kg. i.p.): 6/9; LD50 [4]: > 600 mg/kg |
| CN(C)c1cccc(-c2nc3n(n2)CCc2ccccc2-3)c1 [Example 41, 2-(m-Dimethylaminophenyl)-5,6-dihydro-s-triazolo[5,1-a]isoquinoline] | active |  |  |
| CC(=O)Nc1nc2n(n1)CCc1ccccc1-2 [Example 35, 2-Acetamido-5,6-dihydro-s-triazolo[5,1-a]isoquinoline] |  |  | Deconditioned/treated ([3]; dose 60 mg./kg. i.p.): 7/10; LD50 [4]: > 400 mg/kg |
| CC(C)Oc1cccc(-c2nc3n(n2)CCc2ccccc2-3)c1 [Example 21, 2-(m-isopropoxyphenyl)-5,6-dihydro-s-triazolo[5,1-a]isoquinoline] | active | 0.25 mg/kg |  |
| c1cncc(-c2nc3n(n2)CCc2ccccc2-3)c1 [Example 10, 2-(3-pyridyl)-5,6-dihydro-s-triazolo[5,1-a]isoquinoline] |  |  | Deconditioned/treated ([3]; dose 15 mg./kg. i.p.): 10/10; LD50 [4]: > 400 mg/kg |
| COc1cccc(-c2nc3c4ccccc4ccn3n2)c1 [Example 58, 2-(m-Methoxyphenyl)-s-triazolo[5,1-a]isoquinoline] | active |  | ED50 [1, 6]: 0.1 mg/kg |
| CCCCCOc1cccc(-c2nc3n(n2)CCc2ccccc2-3)c1 [Example 22, 2-(m-pentyloxyphenyl)-5,6-dihydro-s-triazolo[5,1-a]isoquinoline] | active |  |  |
| CCCOc1cccc(-c2nc3n(n2)CCc2ccccc2-3)c1 [Example 14, 2-(m-propoxyphenyl)-5,6-dihydro-s-triazolo[5,1-a]isoquinoline] | active | 0.11 mg/kg | minimal effective dose [2]: 6.25 mg/kg |
| Clc1ccc(-c2nc3c4ccccc4ccn3n2)cc1 [Example 61, 2-(p-Chlorophenyl)-s-triazolo[5,1-a]isoquinoline] | active |  | ED50 [1, 6]: 0.08 mg/kg |
| N=C(NN1CCc2ccccc2C1=O)c1cccc([N+](=O)[O-])c1 [2-(m-Nitrobenzimidoylamino)-3,4-dihydro-1-(2H) isoquinolinone] |  |  | Deconditioned/treated ([3]; dose 30 mg./kg. i.p.): 6/10; Deconditioned/treated ([3]; dose 60 mg./kg. i.p.): 10/10; LD50 [4]: > 600 mg/kg |
| Fc1cccc(-c2nc3n(n2)CCc2ccccc2-3)c1 [Example 19, 2-(m-fluorophenyl)-5,6-dihydro-s-triazolo[5,1-a]isoquinoline] | active |  |  |
| CCOC(=O)NC(=S)Nc1nc2n(n1)CCc1ccccc1-2 [2-carbethoxythioureido-5,6-dihydro-s-triazole-[5,1-a]isoquinoline] |  |  | Deconditioned/treated ([3]; dose 60 mg./kg. i.p.): 7/10; LD50 [4]: > 600 mg/kg |
| Oc1cccc(-c2nc3n(n2)CCc2ccccc2-3)c1 [Example 42, 2-(3-Hydroxyphenyl)-5,6-dihydro-s-triazolo[5,1-a]isoquinoline] | active |  |  |
| c1cc(OC2CCCC2)cc(-c2nc3n(n2)CCc2ccccc2-3)c1 [Example 23, 2-(m-cyclopentyloxyphenyl)-5,6-dihydro-s-triazolo[5,1-a]isoquinoline] | active |  |  |
| C#CCOc1cccc(-c2nc3n(n2)CCc2ccccc2-3)c1 [Example 25, 2-(m-propargyloxyphenyl)-5,6-dihydro-s-triazolo[5,1-a]isoquinoline] | active | 0.21 mg/kg |  |
| Cc1ccc(-c2nc3n(n2)CCc2ccccc2-3)cc1 [Example 4, 2-(p-toluyl)-5,6-dihydro-s-triazolo[5,1-a]isoquinoline, reference compound] |  | 2 mg/kg |  |
| Cc1ccccc1-c1nc2n(n1)CCc1ccccc1-2 [Example 2, 2-(o-toluyl)-5,6-dihydro-s-triazolo[5,1-a]isoquinoline, reference compound] |  | > 10 mg/kg |  |
